Measurements as given in ChEMBL document CHEMBL1221220, “Transport and signaling via the amino acid binding site of the yeast Gap1 amino acid transceptor” (Nat Chem Biol, 2009).
Substitutions are numbered along the chain they refer to. The source made the active and inactive calls.

Tests used:
[1] = tested on: T1, General amino-acid permease GAP1 (Saccharomyces cerevisiae), P19145 [I384C]; assay: Activation of yeast Gap1 I384C mutant-mediated amino acid uptake at 10 mM
T1 sequence (whole entry): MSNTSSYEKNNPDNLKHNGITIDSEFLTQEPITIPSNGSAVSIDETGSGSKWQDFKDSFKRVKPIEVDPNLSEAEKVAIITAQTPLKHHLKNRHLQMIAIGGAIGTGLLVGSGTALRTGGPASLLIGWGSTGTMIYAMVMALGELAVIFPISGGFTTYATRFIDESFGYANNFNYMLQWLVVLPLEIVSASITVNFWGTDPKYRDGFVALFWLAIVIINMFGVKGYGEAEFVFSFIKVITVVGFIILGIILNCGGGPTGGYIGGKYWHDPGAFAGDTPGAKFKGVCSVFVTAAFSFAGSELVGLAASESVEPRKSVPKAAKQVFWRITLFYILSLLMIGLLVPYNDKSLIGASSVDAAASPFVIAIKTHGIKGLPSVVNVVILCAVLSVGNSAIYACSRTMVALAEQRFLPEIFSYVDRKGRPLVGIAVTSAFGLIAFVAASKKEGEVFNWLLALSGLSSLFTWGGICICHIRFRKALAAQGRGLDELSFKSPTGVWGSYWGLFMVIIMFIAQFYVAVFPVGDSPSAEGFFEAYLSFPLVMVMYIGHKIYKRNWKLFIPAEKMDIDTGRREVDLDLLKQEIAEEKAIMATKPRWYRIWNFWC

[2] = tested on: T2, General amino-acid permease GAP1 (Saccharomyces cerevisiae), P19145 [A393C]; assay: Activation of yeast Gap1 A393C mutant-mediated amino acid uptake at 10 mM
T2 sequence (whole entry): T1 sequence (whole entry) with C384I, A393C

[3] = tested on: T3, General amino-acid permease GAP1 (Saccharomyces cerevisiae), P19145 [C397C]; assay: Activation of yeast Gap1 C397C mutant-mediated amino acid uptake at 10 mM
T3 sequence (whole entry): T1 sequence (whole entry) with C384I

[4] = tested on: T4, General amino-acid permease GAP1 (Saccharomyces cerevisiae), P19145 [M401C]; assay: Activation of yeast Gap1 M401C mutant-mediated amino acid uptake at 10 mM
T4 sequence (whole entry): T1 sequence (whole entry) with C384I, M401C

[5] = tested on: T3, General amino-acid permease GAP1 (Saccharomyces cerevisiae), P19145 [C397C]; assay: Induction of yeast Gap1 C397C mutant-mediated […] activation at 10 mM

Measured: Activity

NC(=O)NCCC[C@H](N)C(=O)O
inactive: all assays above
